# Data published in patent publication US20120171194A1, “Method of Cell Differentiation and Uses Therefor in Screening, Diagnosis and Therapy” (priority 2009, published 2012).
# Tested on: co-culture of HLA-A2 positive monocytes and HLA-A2 negative HUVECs
# Test: Co-culture of PBMC-derived monocytes with HUVECs: endothelial incorporation of monocyte-derived EC-like cells (flow cytometry, HLA-A2)
# Type: cell-based, human
# Conditions: day 3; for proportion of HLA-A2 positive cells of the total cell population: no apoA-I control about 15%; for endothelial incorporation of HLA-A2 positive monocyte-derived endothelial-like cells into the HUVECs layer (effect in words): apoA-I 0.25, 0.5 and 2.0 mg/ml
# Procedure: Human umbilical vein ECs (HUVEC) were isolated from human umbilical veins using collagenase digestion. Briefly, umbilical cords from normal or caesarean deliveries are collected and perfused with Ca^2+ and Mg^2+-free phosphate buffer saline (PBS). HUVECs were removed by short treatment at 37° C. with collagenase solution (0.1% in PBS with Ca^2+ and Mg^2+). HUVECS were cultured and expanded for use in investigation at no later than passage 4. Cells were grown under standard culture conditions of 37° C. in a 95% air/5% CO2 atmosphere in M199 media (Cell Applications or Invitrogen Australia) supplemented with 10% foetal bovine serum (FBS; Trace Bioscience, or Invitrogen Australia) or with 10% heat-inactivated human serum and with a D-glucose concentration of 5.0 mM. The human serum was obtained from healthy donors within 7 days of the experiment. The human serum was filtered with 0.22 μm PES membrane (Millipore) and heat inactivated at 56° C. for 30 minutes.
# The ECs were screened for human leucocyte antigen-A2 type (HLA-A2) expression with direct immunofluorescence and flow cytometry (Beckman Coulter). The batches of HUVEC cells that were HLA-A2 negative were used in these investigations. Alternatively, batches of HACECs that are HLA-A2 negative are used in these investigations. The batches of HLA-A2 negative HUVECs preferably at second passage were grown to approximately 75% sub-confluence on 6-wells cell culture plates (Becton Dickinson Labware, growth area 9.6 cms^2 per well) at a density varying from 10,000 to 500,000 cells per well 24 hours before the co-culture. Usually a density of 500,000 cells per well is needed to achieve a fully confluent layer of HUVECS. Alternatively, batches of HLA-A2 negative HCAECs preferably at second passage are grown to approximately 75% sub-confluence on 6-wells cell culture plates (Bectin Dickinson Labware).
# Fresh peripheral blood mononuclear cells (PBMCs) were obtained from venous blood of healthy HLA-A2 positive donors (n=5) by gradient centrifugation on Lymphoprep in a hypertonic medium (Lymphoprep™) and immediately seeded onto HUVECs. Alternatively, the PBMCs are immediately seeded onto HCAECs layers at densities ranging from 0.25 to 2×10^6 cells per well. […] The co-cultured cell layer containing HUVECs were detached at multiple time points between day 0 and day 6 by addition of 20 μl of detachment solution containing 0.12% trypsin and analyzed by direct immunofluoresence and flow cytometry inter alia for expression of cell surface markers. […]
# Expression of cell surface markers was analyzed by two-colors direct immunofluoresence and flow cytometry (Cytomics FC500, Beckman Coulter). […]
substance,measurement,setting,value
apolipoprotein A-I [apoA-I],proportion of HLA-A2 positive cells of the total cell population,"0.5 mg/ml apoA-I in co-culture, t test P<0.01",about 33%
same,proportion of HLA-A2 positive cells of the total cell population,2.0 mg/ml apoA-I in co-culture,about 37%
same,endothelial incorporation of HLA-A2 positive monocyte-derived endothelial-like cells into the HUVECs layer (effect in words),,dose dependent increase
same,endothelial incorporation of HLA-A2 positive monocyte-derived endothelial-like cells into the HUVECs layer (effect in words),listed as ApoA-I,increased endothelial incorporation
